Literature values, collected in patent publication US10532971B2, “4-hydroxybutyric acid analogs” (Concert Pharmaceuticals, Inc., priority 2009, dated 2020).
Where a name gives a salt, the structure may show the parent alone.

Legend:
[1] = clinical trials; dose-dependent adverse effects
[2] = in humans

For `O=C(O)CCCO` [sodium oxybate, sodium salt of 4-hydroxybutyric acid], the “rates of headache, nausea, and dizziness” value [1] is given as 17-22%.
In the case of `O=C(O)CCCO` [4-hydroxybutyric acid, 4-Hydroxybutyric acid], the half life [2] is listed as 30 to 60 min.
